Data on 3 molecules can be found in publication PMC4388869 (Journal of neuroimmune pharmacology : the official journal …, 2015).

Several values for one entry are separate records, joined by “and”; a condition that tells them apart may be missing. Equal entries are not always repeated.

For data set [1], the target named is T1, WT hDAT (Homo sapiens, UniProt Q01959). It counts as cell-based. The note with it: ZnCl2 10 µM, CHO cells.
For data set [2], the target named is T2, Y88F-hDAT (Homo sapiens, UniProt Q01959, Y88F). Format: cell-based.
T2 sequence (Q01959 whole entry Y88F): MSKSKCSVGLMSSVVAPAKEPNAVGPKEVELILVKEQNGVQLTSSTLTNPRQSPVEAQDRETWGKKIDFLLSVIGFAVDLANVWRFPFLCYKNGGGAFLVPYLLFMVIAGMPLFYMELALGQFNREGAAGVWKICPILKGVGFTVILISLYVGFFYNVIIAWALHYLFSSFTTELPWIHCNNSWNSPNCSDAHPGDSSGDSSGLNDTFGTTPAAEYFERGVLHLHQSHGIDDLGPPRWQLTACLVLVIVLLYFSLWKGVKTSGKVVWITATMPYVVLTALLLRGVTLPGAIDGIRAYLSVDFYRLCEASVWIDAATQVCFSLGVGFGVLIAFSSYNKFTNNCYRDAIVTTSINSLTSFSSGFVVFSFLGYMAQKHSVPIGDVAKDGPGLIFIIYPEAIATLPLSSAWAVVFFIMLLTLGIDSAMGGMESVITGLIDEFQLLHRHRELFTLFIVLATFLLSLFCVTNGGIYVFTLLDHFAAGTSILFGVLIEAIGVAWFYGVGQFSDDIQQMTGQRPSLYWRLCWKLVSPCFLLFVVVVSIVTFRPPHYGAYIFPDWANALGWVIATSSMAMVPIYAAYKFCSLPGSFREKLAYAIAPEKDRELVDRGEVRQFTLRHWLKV
The target in data set [3] is T3, K92M-hDAT (Homo sapiens, UniProt Q01959, K92M). Format: cell-based.
T3 sequence (Q01959 whole entry K92M): as the sequence (Q01959 whole entry Y88F) above, with F88Y, K92M counted along it
In data set [4] the target is T4, Y470F-hDAT (Homo sapiens, UniProt Q01959, Y470F). Format: cell-based.
T4 sequence (Q01959 whole entry Y470F): as the sequence (Q01959 whole entry Y88F) above, with F88Y, Y470F counted along it
Data set [5] deals with T5, Y470A-hDAT (Homo sapiens, UniProt Q01959, Y470A). Format: cell-based.
T5 sequence (Q01959 whole entry Y470A): as the sequence (Q01959 whole entry Y88F) above, with F88Y, Y470A counted along it
In data set [6] the target is T1, WT hDAT. Briefly: [3H]WIN 35,428 binding assay, WT hDAT. Conditions: ZnCl2 10 µM, CHO cells.
The target of data set [7] is T2, Y88F-hDAT. Briefly: [3H]WIN 35,428 binding assay, Y88F-hDAT. The note with it: ZnCl2 10 µM, CHO cells.
Data set [8] concerns the target T3, K92M-hDAT. Briefly: [3H]WIN 35,428 binding assay, K92M-hDAT. Conditions: ZnCl2 10 µM, CHO cells.
Data set [9] concerns the target T4, Y470F-hDAT. Briefly: [3H]WIN 35,428 binding assay, Y470F-hDAT. The note with it: ZnCl2 10 µM, CHO cells.
The target of data set [10] is T5, Y470A-hDAT. Briefly: [3H]WIN 35,428 binding assay, Y470A-hDAT. Conditions: ZnCl2 10 µM, CHO cells.
The target of data set [11] is T4, Y470F-hDAT. The experiment in a line: Basal substrate efflux assay, CHO cells with Y470F-hDAT. Format: cell-based.
Data set [12] addresses T5, Y470A-hDAT. Briefly: Basal substrate efflux assay, CHO cells with Y470A-hDAT. It counts as cell-based.
The target of a further data set is Y470H-hDAT (Homo sapiens, UniProt Q01959, Y470H). The experiment in a line: Basal substrate efflux assay, CHO cells with Y470H-hDAT. It counts as cell-based.
Sequence of Y470H-hDAT (Q01959 whole entry Y470H): as the sequence (Q01959 whole entry Y88F) above, with F88Y, Y470H counted along it
Data set [13] has as its target T2, Y88F-hDAT. Briefly: Basal substrate efflux assay, CHO cells with Y88F-hDAT. Format: cell-based.
The target of data set [14] is T3, K92M-hDAT. Briefly: Basal substrate efflux assay, CHO cells with K92M-hDAT. It counts as cell-based.
Data set [15] has as its target T1, WT hDAT. The experiment in a line: Basal substrate efflux assay, CHO cells with WT hDAT. Format: cell-based. Conditions: preloading [3H]MPP+ 5 nM, 30 min.
The mark [16] stands for this setting: transfected PC12 cells (Fig. 4 legend: CHO), room temperature, 8 min.
Setting [17] is: preloading 0.05 µM [3H]DA, 20 min, CHO cells.
Where [18] appears, read: preloading [3H]MPP+ 5 nM, 30 min, CHO cells.

T1 sequence (Q01959 whole entry): as the sequence (Q01959 whole entry Y88F) above, with F88Y counted along it

For `[Cl-].[Cl-].[Zn+2]` [Zn^2+, ZnCl2], the “decrease of [3H]DA uptake by Zn2+ relative to control” value at WT hDAT [1] was 47% and 48%; at Y88F-hDAT [2] (ZnCl2 10 µM, CHO cells), 73%; at K92M-hDAT [3] (ZnCl2 10 µM, CHO cells), 81%; on Y470F-hDAT [4] (ZnCl2 10 µM, CHO cells), 49%; at Y470A-hDAT [5] (ZnCl2 10 µM, CHO cells), 72%. Also, the “increase of [3H]WIN 35,428 binding by Zn2+ relative to control” value on WT hDAT [6] is 48% and 54%. In addition, the “effect of Zn2+ on [3H]WIN 35,428 binding” value on Y88F-hDAT [7] is “did not significantly alter”; at K92M-hDAT [8], “did not significantly alter”; at Y470F-hDAT [9] it was “but not in Y470F-hDAT and Y470A-hDAT”; on Y470A-hDAT [10] it was “but not in Y470F-hDAT and Y470A-hDAT”.
Turning to `NCCc1ccc(O)c(O)c1` [DA, dopamine], the entries for the “Vmax of [3H]DA uptake” value at Y88F-hDAT [2] (setting [16]), at K92M-hDAT [3] (setting [16]) and at Y470A-hDAT [5] (transfected PC12 cells) were 14.8 ± 3.7 pmol/min/10^5 cells, 4.5 ± 1.7 pmol/min/10^5 cells and 1.2 ± 0.2 pmol/min/10^5 cells, respectively. At Y470F-hDAT [4] (transfected PC12 cells), the “Km of [3H]DA uptake compared to WT hDAT” value was “did not alter”. Moreover, the “Vmax of [3H]DA uptake compared to WT hDAT” value on Y470F-hDAT [4] (transfected PC12 cells) was “did not alter”. For the same molecule, the “basal DA efflux compared to WT hDAT” value at Y470F-hDAT [11] is listed as “no effect”. Moreover, the “total [3H]DA in the cells at the start of the efflux experiment” value is given as 20908 ± 4209 dpm on Y470F-hDAT [11] (setting [17]); 1158 ± 123 dpm at Y470A-hDAT [12] (setting [17]); 2488 ± 150 dpm at Y470H-hDAT (setting [17]); 41805 ± 6887 dpm at Y88F-hDAT [13] (setting [17]); 9655 ± 2160 dpm at K92M-hDAT [14] (setting [17]). Moreover, the “basal fractional [3H]DA efflux compared to WT hDAT” value at Y470A-hDAT [12] (at 1 and 10 min) was “elevated”; at Y470H-hDAT (at 1, 10, 20 min), “elevated”; at K92M-hDAT [14] (at 1 and 10 min) it was “elevated”.
As for `C[n+]1ccc(-c2ccccc2)cc1` [MPP^+, 1-methyl-4-phenylpyridinium], the “total [3H]MPP+ in the cells at the start of the efflux experiment” value is 12120 ± 397 dpm and 15516 ± 920 dpm on WT hDAT [15]; 7399 ± 359 dpm on Y470F-hDAT [11] (setting [18]); 460 ± 46 dpm on Y470A-hDAT [12] (setting [18]); 602 ± 28 dpm on Y470H-hDAT (setting [18]); 5695 ± 450 dpm at Y88F-hDAT [13] (setting [18]); 967 ± 121 dpm at K92M-hDAT [14] (setting [18]). The “basal MPP+ efflux compared to WT hDAT” value at Y470F-hDAT [11] is given as “no effect”. In addition, the results for the “basal fractional [3H]MPP+ efflux compared to WT hDAT” value at Y470A-hDAT [12] (at all time points), at Y88F-hDAT [13] (at all time points) and on K92M-hDAT [14] (at all time points) were “elevated”, “did not alter” and “did not alter”, respectively.
